Test results reported in PMC10663540, “Structure-based discovery of dual pathway inhibitors for SARS-CoV-2 entry” (Nature Communications, 2023).
Values joined by “and” are separate entries in the source; they are usually repeats but may differ in a detail not shown here. Equal entries are not always repeated. Where two headings read alike, the source gives them in different places.

Experiments:
TMPRSS2 = TMPRSS2 (Homo sapiens, UniProt O15393); test: biochemical; format: biochemical; conditions: Fig. 5b
TMPRSS2, sequence (O15393 256-492): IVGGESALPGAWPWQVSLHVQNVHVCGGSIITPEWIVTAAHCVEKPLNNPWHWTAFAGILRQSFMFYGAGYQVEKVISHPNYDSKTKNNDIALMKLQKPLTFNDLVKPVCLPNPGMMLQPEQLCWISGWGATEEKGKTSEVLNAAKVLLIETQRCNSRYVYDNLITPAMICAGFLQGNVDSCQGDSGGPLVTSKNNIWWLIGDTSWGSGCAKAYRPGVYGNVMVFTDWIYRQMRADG
TMPRSS2, sequence (O15393 other isoform, or with tags, fused parts or gaps): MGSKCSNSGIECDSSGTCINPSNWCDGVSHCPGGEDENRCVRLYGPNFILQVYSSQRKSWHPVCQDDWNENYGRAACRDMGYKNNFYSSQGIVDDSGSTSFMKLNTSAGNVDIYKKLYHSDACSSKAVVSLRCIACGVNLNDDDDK

[1] = tested on: SARS-CoV-2-S pseudotyped virus Omicron BA.2; test: microbe, parasite or virus in culture; format: cell-based
in vitro = conditions: human
human CTSL = target: T1, human CTSL (Homo sapiens, UniProt P07711); test: FRET enzymatic inhibition assay of CTSL (IC50 measurement); format: biochemical
T1 construct: made in house
T1 sequence (P07711 114-333): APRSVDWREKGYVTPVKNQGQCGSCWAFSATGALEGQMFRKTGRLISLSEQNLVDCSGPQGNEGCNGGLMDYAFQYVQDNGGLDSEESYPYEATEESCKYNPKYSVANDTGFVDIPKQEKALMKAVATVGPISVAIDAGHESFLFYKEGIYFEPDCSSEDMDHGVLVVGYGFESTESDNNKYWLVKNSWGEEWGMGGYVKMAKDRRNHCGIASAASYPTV

Calu-3 cells = conditions: rep1-rep3

Structure (SMILES): NC(N)=Nc1ccc(C(=O)OCCN2CCN(C(=O)N[C@@H](Cc3ccccc3)C(=O)N[C@H](/C=C/S(=O)(=O)c3ccccc3)CCc3ccccc3)CC2)cc1 [212-148]
- Inhibition: TMPRSS2 (TMPRSS2; 212-148 7812.5 nM): 95.50% and 95.52% and 96.33%
- inhibition at 7.8125 µM (TMPRSS2; 212-148 7812.5 nM): 94.8%
- Inhibition: TMPRSS2 (TMPRSS2; 212-148 15625 nM): 98.35% and 96.17% and 99.57%
- inhibition at 15.625 µM (TMPRSS2; 212-148 15625 nM): 97.8%
- Inhibition: TMPRSS2 (TMPRSS2; 212-148 31250 nM): 98.24% and 98.70% and 100.24%
- inhibition at 31.25 µM (TMPRSS2; 212-148 31250 nM): 97.8%
- Inhibition: TMPRSS2 (TMPRSS2; 212-148 62500 nM): 98.19% and 99.09% and 100.93%
- inhibition at 62.5 µM (TMPRSS2; 212-148 62500 nM): 98%
- Inhibition: TMPRSS2 (TMPRSS2; 212-148 125000 nM): 98.93% and 99.03% and 99.02%
- inhibition at 125 µM (TMPRSS2; 212-148 125000 nM): 98.3%
- Inhibition: TMPRSS2 (TMPRSS2; 212-148 250000 nM): 99.15% and 99.14% and 99.60%
- inhibition at 250 µM (TMPRSS2; 212-148 250000 nM): 98.1%
- Inhibition: TMPRSS2 (TMPRSS2; 212-148 500000 nM): 100.68% and 99.05% and 100.75%
- inhibition at 500 µM (TMPRSS2; 212-148 500000 nM): 100%
- Inhibition: TMPRSS2 (TMPRSS2; 212-148 1000000 nM): 100.30% and 98.80% and 100.85%
- inhibition at 1000 µM (TMPRSS2; 212-148 1000000 nM): 99.8%
- Inhibition: TMPRSS2 (TMPRSS2; 212-148 2000000 nM): 100.85% and 100.05% and 100.27%
- inhibition at 2000 µM (TMPRSS2; 212-148 2000000 nM): 99%
- content remaining (LC-MS) (after two days in the medium that contains FBS, 125 μM): more than 50%
- stability compared (in words) (same conditions as cell assay media): more stable than nafamostat
- Inhibition: BA.2/Huh-7 ([1]; 212-148 0.00128 μM, Fig. 5d): 25.89% and 19.49%
- Inhibition: BA.2/Huh-7 ([1]; 212-148 0.8 μM, Fig. 5d): 91.14% and 94.17%
- Inhibition: BA.2/Huh-7 ([1]; 212-148 4 μM, Fig. 5d): 97.31% and 97.73%
- Inhibition: BA.2/Huh-7 ([1]; 212-148 20 μM, Fig. 5d): 84.53% and 89.27%
- inhibition at 0.00128 µM ([1]; Severe acute respiratory syndrome coronavirus 2, Huh-7, 120 h, 212-148 0.00128 μM, Fig. 5d): 38.3%
- inhibition at 0.8 µM ([1]; Severe acute respiratory syndrome coronavirus 2, Huh-7, 120 h, 212-148 0.8 μM, Fig. 5d): 99.7%
- inhibition at 4 µM ([1]; Severe acute respiratory syndrome coronavirus 2, Huh-7, 120 h, 212-148 4 μM, Fig. 5d): 83.7%
- inhibition at 20 µM ([1]; Severe acute respiratory syndrome coronavirus 2, Huh-7, 120 h, 212-148 20 μM, Fig. 5d): 97.9%
- EC50 ([1]; Severe acute respiratory syndrome coronavirus 2, Huh-7, read-out: Antiviral efficacy EC50 (95% CI)): 5.7 nM
- CC50 (in vitro): 347000 nM
- Inhibition: CTSL (human CTSL; 212-148 0.0152588 nM, Fig. 5c): 2.91% and -0.21% and -1.28% and 1.99%
- Inhibition: CTSL (human CTSL; 212-148 0.0305176 nM, Fig. 5c): 3.33% and -0.12% and 1.43% and -2.77%
- Inhibition: CTSL (human CTSL; 212-148 0.0610352 nM, Fig. 5c): -0.57% and 0.90% and 3.39% and -2.15%
- Inhibition: CTSL (human CTSL; 212-148 0.12207 nM, Fig. 5c): 9.01% and 2.36% and 0.90% and 3.32%
- Inhibition: CTSL (human CTSL; 212-148 0.244141 nM, Fig. 5c): 8.36% and 6.61% and 10.35%
- inhibition at 0.000244141 µM (human CTSL; 212-148 0.244141 nM, Fig. 5c): 6.2%
- Inhibition: CTSL (human CTSL; 212-148 0.488281 nM, Fig. 5c): 11.98% and 10.08% and 8.64%
- inhibition at 0.000488281 µM (human CTSL; 212-148 0.488281 nM, Fig. 5c): 11.8%
- Inhibition: CTSL (human CTSL; 212-148 0.976562 nM, Fig. 5c): 27.34% and 25.99% and 25.66%
- inhibition at 0.000976562 µM (human CTSL; 212-148 0.976562 nM, Fig. 5c): 23.1%
- Inhibition: CTSL (human CTSL; 212-148 1.95312 nM, Fig. 5c): 44.61% and 46.51% and 45.72%
- inhibition at 0.00195312 µM (human CTSL; 212-148 1.95312 nM, Fig. 5c): 48%
- Inhibition: CTSL (human CTSL; 212-148 3.90625 nM, Fig. 5c): 71.05% and 70.57% and 71.92%
- inhibition at 0.00390625 µM (human CTSL; 212-148 3.90625 nM, Fig. 5c): 73.5%
- Inhibition: CTSL (human CTSL; 212-148 7.8125 nM, Fig. 5c): 92.07% and 92.09% and 91.52%
- inhibition at 0.0078125 µM (human CTSL; 212-148 7.8125 nM, Fig. 5c): 91.9%
- Inhibition: CTSL (human CTSL; 212-148 15.625 nM, Fig. 5c): 98.41% and 99.33% and 98.88%
- inhibition at 0.015625 µM (human CTSL; 212-148 15.625 nM, Fig. 5c): 98.4%
- Inhibition: CTSL (human CTSL; 212-148 31.25 nM, Fig. 5c): 100.04% and 99.69% and 99.78%
- inhibition at 0.03125 µM (human CTSL; 212-148 31.25 nM, Fig. 5c): 99.8%
- Inhibition: CTSL (human CTSL; 212-148 62.5 nM, Fig. 5c): 100.21% and 99.82% and 99.78%
- inhibition at 0.0625 µM (human CTSL; 212-148 62.5 nM, Fig. 5c): 100%
- Inhibition: CTSL (human CTSL; 212-148 125 nM, Fig. 5c): 100.33% and 100.36% and 100.30%
- inhibition at 0.125 µM (human CTSL; 212-148 125 nM, Fig. 5c): 100%
- Inhibition: CTSL (human CTSL; 212-148 250 nM, Fig. 5c): 99.87% and 99.66% and 100.24%
- inhibition at 0.25 µM (human CTSL; 212-148 250 nM, Fig. 5c): 100%
- Inhibition: CTSL (human CTSL; 212-148 500 nM, Fig. 5c): 100.03% and 100.68% and 99.61%
- inhibition at 0.5 µM (human CTSL; 212-148 500 nM, Fig. 5c): 99.9%
- Inhibition: CTSL (human CTSL; 212-148 1000 nM, Fig. 5c): 100.34% and 99.76% and 100.32%
- inhibition at 1 µM (human CTSL; 212-148 1000 nM, Fig. 5c): 99.5%
- Inhibition: CTSL (human CTSL; 212-148 2000 nM, Fig. 5c): 100.56% and 99.97%
- inhibition at 2 µM (human CTSL; 212-148 2000 nM, Fig. 5c): 99%
- IC50 (human CTSL; substrate Cbz-Phe-Arg-AMC, pH 5.5, mean ± SD, four replicates): 2.13 nM
- Cytotoxicity (Calu-3 cells; 0.15 μM): 2.30% and 2.49% and 2.76%
- Cytotoxicity (Calu-3 cells; 0.46 μM): 5.33% and 5.48% and 5.69%
- Cytotoxicity (Calu-3 cells; 4.1 μM): -1.17% and -0.96% and -0.67%
- Cytotoxicity (Calu-3 cells; 12.3 μM): 0.51% and 0.76% and 1.02%
- Cytotoxicity (Calu-3 cells; 111.1 μM): -1.18% and -0.95% and -0.65%
- Cytotoxicity (Calu-3 cells; 333.3 μM): 32.20% and 32.35% and 32.61%
- Cytotoxicity (Calu-3 cells; 1000 μM): 84.78% and 84.85% and 84.92%
